Our source for the IC50 values is patent US20230416261A1, “ETHANEDIAMINE-HETEROCYCLE DERIVATIVES AS INHIBITORS OF PROTEIN ARGININE METHYLTRANSFERASES” (Board of Regents, The University of Texas System, priority 2021, published 2023).

In assay [1] the target is T1, PRMT1 (Homo sapiens, UniProt Q99873). The assay is described as follows: PRMT1 RKO Cellular Target Engagement Assay (In-Cell Western, asymmetric di-methyl arginine). Type of assay: cell-based. To be noted: RKO cells, 48 hr compound incubation; read-out: RKO IC50 (PRMT-1 Target Engagement). How it is done:
RKO cells were routinely maintained in EMEM media (ATCC, Catalog #30-2003) supplemented with 10% fetal bovine serum (Sigma, Catalog #F2442) using a humidified incubator (37° C., 5% CO2, and ambient O2).
In preparation for the In-Cell Western assay, cells were harvested and resuspended in EMEM media supplemented with 10% fetal bovine serum. Cells were seeded onto a 384 well, black, clear bottom, Poly-D-Lysine coated tissue culture plate (Greiner, Catalog #781946) at a density of 1,000 cells/well in a volume of 40 μL. The culture plate was incubated for 24 hr at 37° C. with 5% CO2 and ambient O2. Stock solutions of the test compounds were prepared in 100% DMSO (Sigma, Catalog #D2650) and serially diluted 1:3 using 100% DMSO. Compounds were additionally diluted 1:40 in culture medium, and 10 μL/well was transferred to the tissue culture plate. Following the compound addition the microplate was incubated at 37° C. for 48 hr.
The media was removed, the plate was washed with 1× PBS (Fisher Bioreagents, Catalog #BP399-20), and cells were fixed for 10 min using 30 μL/well of 4% paraformaldehyde (Electron Microscopy Sciences, Catalog #15710). The paraformaldehyde was removed, the plate was again washed with 1× PBS, and cells were permeabilized for 15 min using 30 μL/well of 1× PBS containing 0.5% Triton-X 100 (Sigma, Catalog #1001748095). The permeabilization buffer was removed, the plate was washed with 1× PBST (Boston BioProducts, Catalog #IBB-171X), and 50 μL/well of blocking buffer (LI-COR, Catalog #927-40000) was added followed by a 1 hour incubation at room temperature. The blocking buffer was removed, and 20 μL/well of anti-asymmetric di-methyl arginine antibody (Cell Signaling, Catalog #13522S) diluted 1:1000 in LI-COR blocking buffer was added to the plate and incubated overnight, in the dark at 4° C.
The primary antibody was then removed, and the plate was washed three times with 1× PBST. 20 μL/well of CellTag (LI-COR, Catalog #926-41090) and IRDye 800CW goat anti-rabbit IgG antibody (LI-COR, Catalog #926-32211), each diluted 1:500 in LI-COR blocking buffer supplemented with 0.1% Tween-20 (Thermo Scientific, Catalog #85114), were added to the plate. The plate was then incubated in the dark, at room temperature for 1 hour followed by three washes with 1× PBST and one wash with H2O. The IRDye secondary antibody signal (800 channel) and the CellTag signal (700 channel) were measured using a Licor Odyssey Imager, and the 800 channel signal was then normalized to the 700 channel signal. IC50 values were calculated using a four-parameter logistic curve fit using Genedata Screener software.

Assay [2] deals with PATC53 cells. The assay is described as follows: PATC53 Long Term Phenotypic Assay (14 days, crystal violet viability). Type of assay: cell-based. The note with it: 336 h. How it is done:
PATC53 cells were derived from the PATC53 PDX model and kindly provided by Jason Fleming (MDACC). The cells were routinely maintained in DMEM/F12 Medium (Corning, Catalog #10-090-CV) supplemented with 10% fetal bovine serum (Sigma, Catalog #F2442), 100 units/mL penicillin and 100 μg/mL streptomycin (Gibco, Catalog #15140-122) in a humidified incubator (37° C., 5% CO2). Prior to the assay, cells were seeded onto a 12-well, TC treated plate (Corning, catalog #353043) at a density of 250 cells per well in a volume of 1 mL. The plate was incubated for 24 hours at 37° C. and 5% CO2. Stock solutions of the test compounds were prepared in 100% DMSO (Sigma, Catalog #D2650) and serially diluted 1:3 using 100% DMSO. Compounds were additionally diluted 1:100 in culture medium, and 110 μL/well was transferred to the tissue culture plate. Following the compound addition, the plate was incubated at 37° C. and 5% CO2 for 14 days. Viability was then assessed by crystal violet staining (Fisher Scientific, Catalog #C58125) as follows: 450 μL of crystal violet (1 mg/mL) was added to the plate for a 10 minute incubation at room temperature. After incubation, the plate was washed 3× with distilled water to remove excess dye and allowed to dry overnight. The crystal violet was solubilized using 10% HOAc (500 μL) for 10 minutes at room temperature, while shaking. A volume of 100 μL was then transferred to a 96-well SpectraPlate (Perkin Elmer, Catalog #6005649). Absorbance at 590 nm was measured with a BioTek Synergy Neo. IC50 values were calculated using a four-parameter logistic curve fit using Genedata Screener software.

Assay [3] concerns the target T1, PRMT1. The assay is described as follows: PRMT1 Enzymatic Assay (LANCE TR-FRET, methylation of histone H4 at Arg3). Type of assay: biochemical. On the set-up: purchased SignalChem P365-380G. The note with it: PRMT1 1.5 nM, SAM 1 μM, biotinylated histone H4 (1-21) 25 nM; read-out: PRMT-1 IC50. How it is done: In order to measure PRMT1 enzymatic activity the LANCE TR-FRET assay from PerkinElmer was used to follow the methylation of histone H4 at Arg3 using S-adenosyl-L-methionine (SAM) as the methyl group donor.
This enzymatic assay was performed in a 384 well, white, low volume plate (PerkinElmer, Catalog 6008289) with assay buffer consisting of 50 mM Hepes (pH 8) (Teknova, Catalog #H1090), 1 mM TCEP (Sigma, Catalog #C4706), and 0.003% Tween-20 (Thermo, Catalog #85114). Stock solutions of the test compounds were prepared in 100% DMSO (Sigma, Catalog #D2650) and serially diluted 1:3 using 100% DMSO. Compounds were additionally diluted 1:40 in assay buffer, and 2 uL/well were transferred to the assay plate. 4 uL/well (final concentration 1.5 nM) of PRMT1 protein (SignalChem, Catalog #P365-380G) diluted in assay buffer was added to the assay plate followed by a 15 min preincubation at room temperature. 4 uL/well of SAM (Sigma, Catalog #A7007) and biotinylated histone H4 (1-21) (AnaSpec, Catalog #62555) (final concentrations 1 μM and 25 nM, respectively) diluted in assay buffer were then added to the assay plate followed by a 1 hour reaction time. Final concentrations of PRMT1, SAM, and histone H4 (1-21) refer to a […].
Detection of methylated histone H4 (H4R^3me) was achieved by combining LANCE Ultra Europium-anti-H4R^3me antibody (PerkinElmer, Catalog #TRF04-14), LANCE Ultra ULight-anti-streptavidin antibody (PerkinElmer, Catalog #TRF0102), and sinefungin (Sigma, Catalog #S8559) (final concentrations 2 nM, 50 nM, and 100 μM respectively) in 1× LANCE detection buffer (PerkinElmer, Catalog #CR97-100) and adding L/well of the detection solution to the assay plate. Detection reagents were allowed to react for 1 hour at room temperature. Final concentrations in the detection solution refer to a L volume. The europium fluorescence signal and the ULight TR-FRET signal were measured using a BioTek Synergy Neo plate reader: excitation at 330 nm, emission at 620 nm and 665 nm respectively, and the ratio of the two signals (665 nm/620 nm) was used for curve fitting. IC50 values were calculated using a four-parameter logistic curve fit using Genedata Screener software.

For assay [4], the system named is DOHH2 cells. The assay can be described thus: DOHH2 Long Term Phenotypic Assay (7 days, Cell Titer-Glo viability). Type of assay: cell-based. The note with it: Homo sapiens, DOHH-2, 168 h, Cell Titer-Glo 2.0. How it is done: DOHH2 cells were kindly provided by Michael Green (MDACC). The cells were routinely maintained in RPMI-1640 Medium (ATCC, Catalog #30-2001) supplemented with 10% fetal bovine serum (Sigma, Catalog #F2442), 100 units/mL penicillin and 100 μg/mL streptomycin (Gibco, Catalog #15140-122) in a humidified incubator (37° C., 5% CO2). Cells were seeded onto a white, CulturPlate-384 (Perkin Elmer, catalog #6007680) at a density of 250 cells per well in a volume of 50 μL. Stock solutions of the test compounds were prepared in 100% DMSO (Sigma, Catalog #D2650) and serially diluted 1:3 using 100% DMSO. Compounds were additionally diluted 1:33 in culture medium, and 10 μL/well was transferred to the tissue culture plate. Following the compound addition, the plate was incubated at 37° C. and 5% CO2 for 7 days. Cells were then mixed and a 30 μL volume was removed. Viability was assessed by a 30 μL addition of Cell Titer-Glo 2.0 (Promega, catalog #G9243). The plate was then shaken on an orbital shaker at 300 RPM for 10 minutes at room temperature, in the dark. Luminescence was measured using a PerkinElmer Envision™ plate reader. IC50 values were calculated using a four-parameter logistic curve fit using Genedata Screener software.

T1 sequence (Q99873 whole entry): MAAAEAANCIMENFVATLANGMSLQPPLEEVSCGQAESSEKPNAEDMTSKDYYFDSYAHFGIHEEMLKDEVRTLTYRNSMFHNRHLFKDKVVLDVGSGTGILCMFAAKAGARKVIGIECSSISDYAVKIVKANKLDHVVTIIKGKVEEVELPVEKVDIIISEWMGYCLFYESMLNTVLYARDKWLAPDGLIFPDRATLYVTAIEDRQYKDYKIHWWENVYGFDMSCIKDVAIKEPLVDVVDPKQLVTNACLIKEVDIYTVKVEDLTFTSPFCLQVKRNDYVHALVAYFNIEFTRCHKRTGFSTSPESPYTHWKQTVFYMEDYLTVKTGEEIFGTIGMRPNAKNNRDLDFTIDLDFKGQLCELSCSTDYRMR

Regarding `CCOCC1(COCC)CCC(c2c(CN(C)CCNC)nn3c2CN(C(=O)CC(F)(F)F)CC3)CC1` [Example 3, 1-(3-(4,4-bis(ethoxymethyl)-cyclohexyl)-2-((methyl(2-(methylamino)ethyl)amino)-methyl)-6,7-dihydropyrazolo-[1,5-a]pyrazin-5(4H)-yl)-3,3,3-trifluoropropan-1-one], the IC50 in assay [1] was 153 nM; in assay [2] it was 428 nM; in assay [3], 57 nM.

As for `CNCCN(C)Cc1nn2c(c1C1CCC(COC)(COC)CC1)CN(C(=O)CC(F)(F)F)CC2` [Example 7, 1-(3-(4,4-bis(methoxy-methyl)cyclohexyl)-2-((methyl(2-(methylamino)-ethyl)amino)methyl)-6,7-dihydropyrazolo[1,5-a]-pyrazin-5(4H)-yl)-3,3,3-trifluoropropan-1-one], the IC50 is 1620 nM in assay [1], 210 nM in assay [2] and 32 nM in assay [3].

Regarding `CNCCN(C)Cc1nn2c(c1C1CCC(COC)(COC)CC1)CN(C(=O)C1COC1)CC2` [Example 9, (3-(4,4-bis(methoxymethyl)-cyclohexyl)-2-((methyl(2-(methylamino)ethyl)amino)-methyl)-6,7-dihydropyrazolo-[1,5-a]pyrazin-5(4H)-yl)-(oxetan-3-yl)methanone], the 50% inhibitory concentration (IC50) is 1110 nM in assay [1], 1300 nM in assay [2] and 65 nM in assay [3].

`COCC1(COC)CCC(c2c(CN(C)CCN)nn3c2CN(C(=O)CC(F)(F)F)CC3)CC1` [Example 10, 1-(2-(((2-aminoethyl)-(methyl)amino)methyl)-3-(4,4-bis(methoxymethyl)-cyclohexyl)-6,7-dihydro-pyrazolo[1,5-a]pyrazin-5(4H)-yl)-3,3,3-trifluoropropan-1-one]: the half-maximal inhibitory concentration (IC50) in assay [1] amounted to 695 nM; in assay [2], 649 nM; in assay [3], 20 nM.

As to `COCC1(COC)CCC(c2c(CN(C)CCN)nn3c2CN(C(=O)C2COC2)CC3)CC1` [Example 12, (2-(((2-aminoethyl)(methyl)-amino)methyl)-3-(4,4-bis-(methoxymethyl)cyclohexyl)-6,7-dihydropyrazolo[1,5-a]-pyrazin-5(4H)-yl)(oxetan-3-yl)methanone], the 50% inhibitory concentration (IC50) in assay [2] amounted to 3860 nM; in assay [3], 23 nM.

For `CNCCN(C)Cc1nn2c(c1C1CCC(COC)(COC)CC1)CN(C(=O)C1(C)CC1)CC2` [Example 17, (3-(4,4-bis(methoxymethyl)-cyclohexyl)-2-((methyl(2-(methylamino)ethyl)amino)-methyl)-6,7-dihydropyrazolo-[1,5-a]pyrazin-5(4H)-yl)(1-methylcyclopropyl)-methanone], the IC50 in assay [1] was 370 nM; in assay [2] it was 133 nM; in assay [3], 56 nM.

With `CNCCN(C)Cc1nn2c(c1C1CCC(COC)(COC)CC1)CN(C(=O)C13CC(C#N)(C1)C3)CC2` [Example 22, 3-(3-(4,4-bis(methoxy-methyl)cyclohexyl)-2-((methyl(2-(methylamino)-ethyl)amino)methyl)-4,5,6,7-tetrahydropyrazolo[1,5-a]-pyrazine-5-carbonyl)bicyclo[1.1.1] pentane-1-carbonitrile], the IC50 in assay [1] was 1400 nM; in assay [2], 447 nM; in assay [3], 72 nM.

Regarding `CNCCN(C)Cc1nn2c(c1C1CCC(COC)(COC)CC1)CN(C(=O)C1CCC1(F)F)CC2` (centres unmarked) [Example 81, (3-(4,4-bis(methoxymethyl)-cyclohexyl)-2-((methyl(2-(methylamino)ethyl)amino)-methyl)-6,7-dihydropyrazolo-[1,5-a]pyrazin-5(4H)-yl)(2,2-difluorocyclobutyl)-methanone], the IC50 in assay [1] came to 367 nM; in assay [4], 296 nM; in assay [3], 133 nM.
